{"source": "paper PMC10046071", "about": "(Biomedicines, 2023)", "key": {"[1]": {"test": "Stability of stock and working solutions and of extracted samples in the autosampler", "assay_type": "physicochemical", "settings": "for stock solution stability, value for accuracy: DMSO stock, 10 days at −80 °C, versus freshly made, CV 3.7%; for working solution stability, value for accuracy: methanol, 8 h at room temperature, with or without light, CV 6.5%", "text": "However, in the present study it has been conducted to study the stability of the stock and working solutions, freeze–thaw stability and autosampler stability. For all stability studies, the analyte stability should fall within 85−115% of the nominal concentration and was not allowed to deviate more than ±15% from the nominal concentration of all the QCs studied, as indicated in the Guidelines for Bioanalytical Methods Validation.\nOn the other hand, the stability of the working solutions in methanol on each test day was evaluated after 8 h at room temperature with light and in the dark.\nThe stability in the autosampler of the sample after the extraction process was evaluated at room temperature in the range between 2 and 8 h."}, "[2]": {"settings": "4 CML patients"}, "[3]": {"settings": "cited from earlier work"}, "[4]": {"settings": "in vitro, human plasma; cited from earlier work"}, "[5]": {"tested_on": "cytochrome P450 (CYP) 3A4", "settings": "cited from earlier work"}, "[6]": {"settings": "493 subjects with CML; cited from earlier work"}, "[7]": {"settings": "no reference given; cited from earlier work"}, "[8]": {"test": "Therapeutic drug monitoring: steady-state plasma pharmacokinetics in patients with CML", "settings": "for Tmax / Cmin / Cmax: steady state; for CL/F: apparent oral clearance"}, "[9]": {"settings": "17 patients, 300 mg twice-daily"}, "[10]": {"settings": "co-administered with a high-fat meal"}, "[11]": {"settings": "Patient 1, 200–300 mg twice-daily oral"}, "[12]": {"settings": "Patient 2, 200–300 mg twice-daily oral"}, "[13]": {"settings": "Patient 3, 200–300 mg twice-daily oral"}, "[14]": {"settings": "Patient 4, 200–300 mg twice-daily oral"}}, "note": "Where “and” joins values, the source holds several entries; their conditions need not be identical. Identical values can stand only once.", "data": [{"smiles": "Cc1cn(-c2cc(NC(=O)c3ccc(C)c(Nc4nccc(-c5cccnc5)n4)c3)cc(C(F)(F)F)c2)cn1", "note": "[nilotinib, Nilotinib]", "values": [{"measurement": "stock solution stability, value for accuracy", "setting": "[1]", "result": "less than 1.5%"}, {"measurement": "degradation on the autosampler", "setting": "[1]; extracted sample, up to 8 h, room temperature", "result": "< 8.3", "unit": "%"}, {"measurement": "working solution stability, value for accuracy", "setting": "[1]", "result": "lower than 15.1%"}, {"measurement": "Correlation of Cmin with ALT (U/L)", "setting": "[2]", "result": "−0.3552"}, {"measurement": "Correlation of Cmin with AST (U/L)", "setting": "[2]", "result": "−0.0833"}, {"measurement": "Correlation of Cmin with Alkaline phosphatase (U/L)", "setting": "[2]", "result": 0.7497}, {"measurement": "Correlation of Cmin with Haemaglobin (g/dL)", "setting": "[2]", "result": "−0.0319"}, {"measurement": "Correlation of Cmin with Haematocrit (%)", "setting": "[2]", "result": 0.0870}, {"measurement": "Correlation of Cmin with Leukocytes (×10^3/µL)", "setting": "[2]", "result": "−0.9194"}, {"measurement": "Correlation of Cmin with Neutrophils (×10^3/µL)", "setting": "[2]", "result": "−0.0280"}, {"measurement": "Correlation of Cmin with Platelet (×10^3/µL)", "setting": "[2]", "result": "−0.6949"}, {"measurement": "Correlation of Cmin with Serum bilirrubin (mg/dL)", "setting": "[2]", "result": "−0.4013"}, {"measurement": "Correlation of Cmin with Serum creatinine (g/dL)", "setting": "[2]", "result": "−0.1897"}, {"measurement": "Cmin at a steady state", "setting": "[3]; 300 mg twice-daily, some clinical trials, no reference given", "result": "~1.123", "unit": "µg/mL"}, {"measurement": "Cmax at steady state", "setting": "[3]; [9]", "result": 1.36, "unit": "µg/mL"}, {"measurement": "Cmin at steady state", "setting": "[3]; [9]", "result": 1.123, "unit": "µg/mL"}, {"measurement": "interindividual variability in exposure (coefficient of variation)", "setting": "[3]", "result": "32–64%"}, {"measurement": "increase in the AUC", "setting": "[3]; [10]", "result": "50–82%"}, {"measurement": "increase in the Cmax", "setting": "[3]; [10]", "result": "up to 112%"}, {"measurement": "mean area under the curve (AUC)", "setting": "[3]; oral 400 mg twice daily", "result": "19.0 ± 9.1", "unit": "µg·h/mL"}, {"measurement": "mean maximum plasma concentration (Cmax)", "setting": "[3]; oral 400 mg twice daily", "result": "2.32 ± 1.07", "unit": "µg/mL"}, {"measurement": "plasma protein binding", "setting": "[4]", "result": "approximately 98%"}, {"measurement": "metabolizing enzymes", "setting": "[5]", "result": "metabolized primarily by cytochrome P450 (CYP) 3A4 isoform and with minor contributions from CYP2C8"}, {"measurement": "trough concentration (Cmin) associated with longer times to complete cytogenetic response and MMR and shorter time to progression", "setting": "[6]", "result": "< 469.4", "unit": "ng/mL"}, {"measurement": "aqueous solubility versus pH", "setting": "[7]", "result": "decreases significantly with increased pH"}, {"measurement": "pKa", "setting": "[7]", "result": 12.38}, {"measurement": "solubility", "setting": "[7]", "result": "good solubility in DMSO, organic solvents (methanol and acetonitrile) and acidic aqueous solution"}, {"measurement": "t1/2", "setting": "[8]; Mean (SD) of 4 patients", "result": "78.1 (75.4) h"}, {"measurement": "Tmax", "setting": "[8]; Mean (SD) of 4 patients", "result": "2.3 (1.3) h"}, {"measurement": "Cmin", "setting": "[8]; Mean (SD) of 4 patients, 200–300 mg twice-daily", "result": "1193.5 ng/mL and 1193.5 (414.7) ng/mL"}, {"measurement": "CL/F", "setting": "[8]; Patient 1", "result": 2.8, "unit": "L/h"}, {"measurement": "t1/2", "setting": "[8]; Patient 1, elimination half-life", "result": 25.1, "unit": "h"}, {"measurement": "Tmax", "setting": "[8]; Patient 1", "result": 1, "unit": "h"}, {"measurement": "Cmax", "setting": "[8]; [11]", "result": 3.4914, "unit": "µg/mL"}, {"measurement": "Cmin", "setting": "[8]; [11]", "result": 1633.9, "unit": "ng/mL"}, {"measurement": "CL/F", "setting": "[8]; Patient 2", "result": 1.9, "unit": "L/h"}, {"measurement": "t1/2", "setting": "[8]; Patient 2, elimination half-life", "result": 69.3, "unit": "h"}, {"measurement": "Tmax", "setting": "[8]; Patient 2", "result": 2, "unit": "h"}, {"measurement": "Cmax", "setting": "[8]; [12]", "result": 1.1372, "unit": "µg/mL"}, {"measurement": "Cmin", "setting": "[8]; [12]", "result": 768.9, "unit": "ng/mL"}, {"measurement": "CL/F", "setting": "[8]; Patient 3", "result": 0.6, "unit": "L/h"}, {"measurement": "t1/2", "setting": "[8]; Patient 3, elimination half-life", "result": 187.4, "unit": "h"}, {"measurement": "Tmax", "setting": "[8]; Patient 3", "result": 2, "unit": "h"}, {"measurement": "Cmax", "setting": "[8]; [13]", "result": 1.9884, "unit": "µg/mL"}, {"measurement": "Cmin", "setting": "[8]; [13]", "result": 1450.3, "unit": "ng/mL"}, {"measurement": "CL/F", "setting": "[8]; Patient 4", "result": 5.7, "unit": "L/h"}, {"measurement": "t1/2", "setting": "[8]; Patient 4, elimination half-life", "result": 30.7, "unit": "h"}, {"measurement": "Tmax", "setting": "[8]; Patient 4", "result": 4, "unit": "h"}, {"measurement": "Cmax", "setting": "[8]; [14]", "result": 1.1035, "unit": "µg/mL"}, {"measurement": "Cmin", "setting": "[8]; [14]", "result": 920.7, "unit": "ng/mL"}]}, {"smiles": "Cc1cc(/C=C/C#N)cc(C)c1Nc1ccnc(Nc2ccc(C#N)cc2)n1", "note": "[rilpivirine]", "values": [{"measurement": "stock solution stability, value for accuracy", "setting": "[1]", "result": "less than 1.5%"}, {"measurement": "working solution stability, value for accuracy", "setting": "[1]", "result": "lower than 15.1%"}]}]}
